In test [1] the test system is mushroom tyrosinase. The experiment in a line: Tyrosinase inhibition assay (diphenolase activity, L-DOPA as substrate). The test is classed as biochemical. Particulars: for tyrosinase inhibitory effect (in words): diphenolase activity; for tyrosinase inhibitory effect (in words) / % inhibition (at 0.8 mM) / pIC50: substrate L-DOPA; for % inhibition (at 0.8 mM) / pIC50: mushroom tyrosinase; for % inhibition (at 0.8 mM): compound at 0.8 mM. The procedure: Tyrosinase activity assays were performed with L-DOPA as substrate, as previously described with slight modifications. The pre-incubation with enzyme consisted of a 1/15 M phosphoric acid buffer solution (pH 6.8, 1.8 mL), an aqueous solution of mushroom tyrosinase (1000 U/mL, Sigma Chemical Co., 0.1 mL) and DMSO (0.1 mL) with or without an added sample. The mixture was pre-incubated at 25°C for 10 minutes. Then, a 1.5 mM L-DOPA solution (1 mL) was added and the reaction was monitored at 475 nm for 5 min. The detected absorbance increases accompanying the oxidation of the substrate (L-DOPA). The final concentration of dopaquinone was measured using the molar absorption coefficient of 3,700 M^-1 cm^-1 [31]. One unit of enzymatic activity was defined as the amount of enzyme transforming 1 μmole of L-DOPA per minute. The percentage of inhibition of tyrosinase activity was calculated as inhibition (%) = (A-B)/A×100, where A represents the difference in the absorbance of control sample between an incubation time of 0.5 and 1.0 min, and B represents the difference in absorbance of the test sample between an incubation time of 0.5 and 1.0 min. The activity of mushroom tyrosinase was determinate by spectrophotometric techniques (Varian Cary 50). DMSO inhibitory activity, in the same experimental conditions, was evaluated as 10.7%.

Test [2] concerns the target mushroom tyrosinase. Particulars: cited from earlier work.

The source of these data is paper PMC6255045, “Tyrosinase Inhibitor Activity of Coumarin-Resveratrol Hybrids” (Molecules, 2009).

pIC50: −log10 of the molar value. Where two headings read alike, the source gives them in different places.

Consider `O=c1oc2cc(O)ccc2cc1-c1ccc(O)cc1` [Compound 3], for which, in the test with mushroom tyrosinase [1], the “tyrosinase inhibitory effect (in words)” value was “no demonstrable inhibitory effects” and the “% inhibition (at 0.8 mM)” value amounted to 9.6%.
Regarding `O=c1oc2c(O)cc(O)cc2cc1-c1cc(O)cc(O)c1` [Compound 7], the “% inhibition (at 0.8 mM)” value in the test on mushroom tyrosinase [1] amounted to 0%.
Turning to `O=c1oc2cc(O)ccc2cc1-c1ccccc1` [Compound 1], in the test with mushroom tyrosinase [1], the “tyrosinase inhibitory effect (in words)” value is “did not inhibit any tyrosinase activity” and the “% inhibition (at 0.8 mM)” value was 0%.
Consider `O=c1oc2ccc(O)cc2cc1-c1ccc(O)cc1` [Compound 4, 6-hydroxy-3-(4’-hydroxyphenyl)coumarin], for which, at mushroom tyrosinase [1], the pIC50 is 2.81 and the “% inhibition (at 0.8 mM)” value is recorded as 26.7%.
For the compound `O=c1oc2ccc(O)cc2cc1-c1cc(O)cc(O)c1` [Compound 5], the “% inhibition (at 0.8 mM)” value in the test on mushroom tyrosinase [1] stood at 0%.
`O=c1ccc2ccc(O)cc2o1` [Umbelliferone]: on mushroom tyrosinase [2] (mushroom tyrosinase, reference compound, ref [20]), the negative-log IC50 (pIC50) was 3.38.
Consider `O=c1cc(-c2cc(O)c(O)c(O)c2)oc2cc(O)cc(O)c12` [pentahydroxyflavone, 3’,4’,5,5’,7-pentahydroxyflavone], for which the “type of tyrosinase inhibition” value in the test on mushroom tyrosinase [2] (previously reported, ref [29]) is “competitive inhibitor”.
Consider `O=c1oc2ccccc2cc1-c1ccc(O)cc1` [Compound 2], for which, in the test with mushroom tyrosinase [1], the “tyrosinase inhibitory effect (in words)” value is given as “no demonstrable inhibitory effects” and the “% inhibition (at 0.8 mM)” value is given as 0%.
For `O=c1oc2cc(O)ccc2cc1-c1cc(O)cc(O)c1` [Compound 6], at mushroom tyrosinase [1], the negative logarithm of the IC50 (pIC50) is 2.43 and the “% inhibition (at 0.8 mM)” value was found to be 19.3%.
On to `O=c1oc2c(O)cc(O)cc2cc1-c1cc(O)c(O)c(O)c1` [Compound 8, 3-(3’,4’,5’-trihydroxyphenyl)-6,8-dihydroxycoumarin], for which, at mushroom tyrosinase [1], the negative logarithm of the IC50 (pIC50) is 3.57 and the “% inhibition (at 0.8 mM)” value is on record as 68.3%. In the test on mushroom tyrosinase [1] (with respect to L-DOPA as substrate at 0.5, 0.25 and 0.1 mM), the “type of tyrosinase inhibition (Dixon plot)” value is “non-competitive”.
